Results: publication PMC4727781, “Tanzawaic Acids, a Chemically Novel Set of Bacterial Conjugation Inhibitors” (PLoS ONE, 2016)
Read-outs that look alike come from different tables or passages of the source.

Key:
[1] = tested on: A. nidulans; assay: antifungal broth dilution susceptibility test, A. nidulans; type: cell-based; conditions: Aspergillus nidulans, mean of three independent experiments, read-out: Toxic-IC90 Anid
Experimental: (§1) Cell culture cytotoxicity assays were performed as described using human foreskin fibroblasts ATCC SCRC-1041 [38], lung carcinoma cells A549 [39], colorectal carcinoma cells HCT-116 [40], pancreatic adenocarcinoma cells PNS1 [41] or glioblastoma multiforme cells T98G [42]. Antibacterial activity was determined using a conventional microtiter broth-dilution technique for two reference strains, S. aureus CECT 794 and M. smegmatis DSMZ 43756. Antifungal activity was measured using the reference method antifungal broth dilution susceptibility test (National Committee for Clinical Laboratory Standars) against two species: A. nidulans (Microorganisms Collection of Biomar Microbial Technologies) and C. albicans CECT 1394.

[2] = tested on: colorectal carcinoma cells HCT-116; assay: cell culture cytotoxicity assay, HCT-116; type: cell-based; conditions: Homo sapiens, mean of three independent experiments, read-out: Toxic-IC50 HCT-116
Experimental: as §1

[3] = tested on: S. aureus CECT 794; assay: antibacterial activity, microtiter broth-dilution, S. aureus; type: cell-based; conditions: Staphylococcus aureus, CECT794, mean of three independent experiments, read-out: Toxic-IC90 Saur
Experimental: as §1

[4] = tested on: R388 conjugation (R388 derivative pJC01); parameters: method as in PMID 26330514; conditions: read-out: COIN-IC50; cited from earlier work
[5] = tested on: PSN1 pancreatic adenocarcinoma cells; assay: cell culture cytotoxicity assay, PSN1; type: cell-based; conditions: Homo sapiens, mean of three independent experiments, read-out: Toxic-IC50 PSN1
Experimental: as §1

[6] = tested on: C. albicans CECT 1394; assay: antifungal broth dilution susceptibility test, C. albicans; type: cell-based; conditions: Candida albicans, CECT1394, mean of three independent experiments, read-out: Toxic-IC90 Calb
Experimental: as §1

[7] = tested on: glioblastoma multiforme cells T98G; assay: cell culture cytotoxicity assay, T98G; type: cell-based; conditions: Homo sapiens, mean of three independent experiments, read-out: Toxic-IC50 T98G
Experimental: as §1

[8] = tested on: M. smegmatis DSMZ 43756; assay: antibacterial activity, microtiter broth-dilution, M. smegmatis; type: cell-based, Mycobacterium smegmatis; conditions: Mycolicibacterium smegmatis, DSMZ43756, mean of three independent experiments, read-out: Toxic-IC90 Msme
Experimental: as §1

[9] = tested on: lung carcinoma cells A549; assay: cell culture cytotoxicity assay, A549; type: cell-based; conditions: Homo sapiens, mean of three independent experiments, read-out: Toxic-IC50 A549
Experimental: as §1

[10] = tested on: human foreskin fibroblasts ATCC SCRC-1041; assay: cell culture cytotoxicity assay, fibroblasts; type: cell-based; conditions: Fibroblast, mean of three independent experiments, read-out: Toxic-IC50 Fibroblasts
Experimental: as §1

[11] = tested on: bacterial and fungal strains; assay: antibacterial and antifungal activities (summary statement); type: cell-based; conditions: summary of Table 1; read-out: toxic-IC90 values, antibacterial and antifungal activities
Experimental: as §1

[12] = tested on: IncW plasmid R388 (derivative pSU2007::Tnlux) conjugation; conditions: COIN threshold; cited from earlier work
[13] = tested on: Magnaporthe oryzae; conditions: read-out: toxic-IC50, inhibition of conidial germination; cited from earlier work
[14] = tested on: IncW plasmid R388 conjugation; assay: plate-conjugation assay, R388; type: cell-based, E. coli; conditions: for COIN activity on R388 conjugation (CF): 1 mM
Experimental: (§2) For the plate-mating procedure, a 200 μl mixture of equal volumes of donor and recipient cultures previously washed, both in stationary phase, was centrifuged and resuspended in 15 μl LB-broth. 5 μl of this mixture were placed on top of 96-well microtiter plate wells containing 150 μl LB-agar (± COINs) and conjugation was allowed to proceed, in general, for 1 h at 37°C. The temperature-sensitive IncH plasmid drR27 was allowed to conjugate for 2 h at 25°C [35]. Bacteria were then resuspended in 150 μl M9 broth and corresponding dilutions were plated on selective media. CF was calculated as the number of transconjugant cells per donor, whereas MF was calculated as the number of cells receiving the mobilizable plasmid per donor. Since this type of frequency data were log-normally distributed, means are calculated using decimal logarithms of data.

[15] = tested on: superoxide anion production; conditions: cited from earlier work
[16] = tested on: Brevibacillus brevis; parameters: method as in PMID 24605144; conditions: at a concentration of 185 μM; cited from earlier work
[17] = tested on: Mucor miehei; parameters: method as in PMID 24605144; conditions: at a concentration of 185 μM; cited from earlier work
[18] = tested on: Botrytis cinerea; parameters: method as in PMID 24605144; conditions: at comparable concentrations; cited from earlier work
[19] = tested on: Phytophthora infestans; conditions: at comparable concentrations; cited from earlier work
[20] = tested on: HeLaS3 cells; parameters: method as in PMID 24605144; conditions: at a concentration of 185 μM; cited from earlier work
[21] = tested on: R388 conjugation (R388 derivative pJC01); assay: fluorescence-based HTC assay; type: cell-based, E. coli; conditions: for IC50: Escherichia coli, read-out: COIN-IC50
[22] = tested on: Paecilomyces variotii; parameters: method as in PMID 24605144; conditions: at a concentration of 185 μM; cited from earlier work
[23] = tested on: K562; parameters: method as in PMID 26055397; conditions: at 100 μM; cited from earlier work
[24] = tested on: mobilization of CloDF13; assay: mobilization by plate-conjugation assay, CloDF13; type: cell-based, E. coli; conditions: 0.4 mM; helper plasmid R388, pOX38 or R100-1
Experimental: as §2

[25] = tested on: Klebsiella pneumoniae; parameters: method as in PMID 26055397; conditions: cited from earlier work
[26] = tested on: IncN plasmid conjugation; assay: plate-conjugation assay, IncN plasmids; type: cell-based, E. coli; conditions: 0.4 mM
Experimental: as §2

[27] = tested on: mobilization of ColE1; assay: mobilization by plate-conjugation assay, ColE1; type: cell-based, E. coli; conditions: 0.4 mM
Experimental: as §2

[28] = tested on: C. albicans; parameters: method as in PMID 26055397; conditions: cited from earlier work
[29] = tested on: IncP plasmid conjugation; assay: plate-conjugation assay, IncP plasmids; type: cell-based, E. coli; conditions: 0.4 mM
Experimental: as §2

[30] = tested on: Jurkat; parameters: method as in PMID 26055397; conditions: at 100 μM; cited from earlier work
[31] = tested on: Bacillus cereus; parameters: method as in PMID 26055397; conditions: cited from earlier work
[32] = tested on: mobilization of RSF1010; assay: mobilization by plate-conjugation assay, RSF1010; type: cell-based, E. coli; conditions: 0.4 mM; helper plasmid pRL443
Experimental: as §2

[33] = tested on: IncFII plasmid R100-1 conjugation; assay: plate-conjugation assay, R100-1; type: cell-based, E. coli; conditions: 0.4 mM
Experimental: as §2

[34] = tested on: U937; parameters: method as in PMID 26055397; conditions: at 100 μM; cited from earlier work
[35] = tested on: Enterococcus faecalis; parameters: method as in PMID 26055397; conditions: cited from earlier work
[36] = tested on: Raji; parameters: method as in PMID 26055397; conditions: at 100 μM; cited from earlier work
[37] = tested on: Proteus mirabilis; parameters: method as in PMID 26055397; conditions: cited from earlier work

Row | SMILES | IC90 [1] [µM] | IC50 [2] [µM] | IC90 [3] [µM] | IC50 [5] [µM] | IC90 [6] [µM] | IC50 [7] [µM] | IC90 [8] [µM] | IC50 [9] [µM] | IC50 [10] [µM] | IC90 [11] [µM] | inhibition of superoxide anion production [15] | also measured
1 | CCCCCCCCCCCCCC#CC(=O)O [2-HDA, 2-hexadecynoic acid] | 8 | 40 | 30 | 80 | < 4 | 100 | 8 | 40 | 100 |  |  | IC50 [4]: ~50 µM
2 | CCCCCCCCCCCCCCCC#CC(=O)O [2-ODA, 2-octadecynoic acid] | 220 | 70 | 350 | 180 | 220 | 150 | 7 | 90 | 90 |  |  | IC50 [4]: ~50 µM
3 | CCCCC/C=C\C/C=C\CCCCCCCC(=O)O [Linoleic acid] | > 360 | 180 | > 360 | 90 | > 360 | 180 | 360 | 90 | 300 | > 100 |  | IC50 [12]: ~50 µM
4 | CCCCCCCC/C=C\CCCCCCCC(=O)O [Oleic acid] | > 220 | 180 | > 420 | 80 | > 220 | 180 | > 420 | 40 | 350 | > 100 |  | IC50 [12]: ~50 µM
5 | Cc1ccc2c(c1/C=C/C=C/C(=O)O)C(C)CC(C)C2 (centres unmarked) [TZA-A, tanzawaic acid A] | > 230 | 70 | 230 | 90 | > 230 | 90 | 230 | 60 | 190 | > 100 | inhibitors of superoxide anion production | IC50 [13]: 37 µM; COIN activity on R388 conjugation (CF) ([14]; plate-conjugation assay): inhibited R388 conjugation to levels similar to TZA-B; activity against Brevibacillus brevis [16]: weak activity; activity against Mucor miehei [17]: weak activity; effect on germination of Botrytis cinerea [18]: not affected; effect on germination of Phytophthora infestans [19]: not affected; activity against HeLaS3 cells [20]: weak activity; IC50 [21]: ~50 µM; activity against Paecilomyces variotii [22]: weak activity
6 | CC1CC(C)C2C(C=CC(C)C2C=CC=CC(=O)O)C1 (centres unmarked) [TZA-B, tanzawaic acid B] | > 230 | 90 | 120 | 180 | > 230 | 180 | 120 | 90 | 180 | > 100 | inhibitor of superoxide anion production | response of K562 cells [23]: no response; inhibition of conjugation ([14]; 0.4 mM, IncW plasmid R388): ~100 fold; R388 conjugation (relative CF) ([14]; 0.4 mM, plate-conjugation assay): 2 ± 2%; effect on mobilization (MF) [24]: affected; antimicrobial activity, concentration below which no effect [25]: ≥ 364 µM; effect on conjugation [26]: not affected; effect on mobilization (MF) ([27]; helper plasmid R388, pOX38 or R100-1): affected; effect on mobilization (MF) ([27]; helper plasmid pRL443): unaffected; R388 conjugation (relative CF) ([21]; 0.4 mM, relative to control without COINs (100%)): 2%; IC50 [21]: ~50 µM; antimicrobial activity, concentration below which no effect [28]: ≥ 364 µM; effect on conjugation [29]: not affected; response of Jurkat cells [30]: no response; antimicrobial activity, concentration below which no effect [31]: ≥ 364 µM; effect on mobilization (MF) [32]: unaffected; inhibition of conjugation [33]: ~100 fold; response of U937 cells [34]: no response; antimicrobial activity, concentration below which no effect [35]: ≥ 364 µM; response of Raji cells [36]: no response; antimicrobial activity, concentration below which no effect [37]: ≥ 364 µM
7 | CC1C=CC2CC(C)(O)CC(C)C2C1/C=C/C=C/C(=O)O (centres unmarked) [TZA-E] |  |  |  |  |  |  |  |  |  |  | inhibitors of superoxide anion production | COIN activity on R388 conjugation (CF) ([14]; plate-conjugation assay): did not show significant COIN activity
